The results in this text go back to a melting point compilation (Tetko et al.; mined from patent text by program, amines drawn as free bases though some values may be those of a salt).

SMILES strings stand for the structures. Where only a bound is given, the exact number is not on record here.

The melting point is the temperature of the solid-liquid transition. Regarding `O=C(C[C@H](NC(=O)C(F)(F)F)C(=O)O)c1ccc2c(c1)Cc1ccccc1-2`, the melting point was in the range of 111 to 115 °C. Then `CCOC(=O)c1sc2[nH]c(=O)c(=O)[nH]c2c1CC`, with > 300 °C.

Take `COc1ccc(Cc2cc3ccccc3c(=O)[nH]2)cc1`: the melting point was 216 to 218 °C. The molecule `COC(=O)c1nc(-c2ccc(Cl)c(OC)c2F)nc(N)c1F` yielded a melting point of 200 to 202 °C.

`COc1c(N)ccc2c1C(=CC#N)CC2` displayed a melting point of 140 to 142 °C. With `COc1cc(NCCOc2ccccc2C)ccc1C(=O)N1CCCC(CC(=O)N2CCN(C)CC2)c2cc(Cl)ccc21` (stereo unspecified) the figure was 160 to 161 °C; with `Cc1nnc(-c2ccc3occ(-c4ccc(S(C)=O)c(C)c4)c3c2)o1` (stereo unspecified), 195 to 196 °C; with `C=CCOC(=O)C1=C(C)Nc2nc(N)nc(N)c2C1c1cccc([N+](=O)[O-])c1` (stereo unspecified), 188 °C. The molecule `O=C(O)COc1cc2c(=O)c3ccccc3oc2cc1Cl` showed a melting point of 237 to 238 °C. `COc1ccc(N2C(=O)[C@H]([C@@H](C)O)[C@H]2S(=O)(=O)c2ccccc2)cc1` had a melting point of 191 to 195 °C. `CC(C)NCC(O)COc1ccc(NC(=O)C(C)C)cc1C#N` (stereo unspecified) yielded a melting point of 126 to 127 °C. With `CCOC(=O)C1=C(C)NC(c2c(F)cccc2F)=NC1c1ccc(F)cc1Cl` (stereo unspecified) the figure was 163 to 165 °C.

The molecule `O=c1nc(-c2ccnc(-c3cccs3)c2)sc2ccccc12` yielded a melting point of 160 to 161 °C. For `COC(=O)c1[nH]c(=S)n(Nc2cccc(Cl)c2)c1C`, the melting point fell in the range of 160 to 162 °C. As for `COc1cc(C=CC(=O)CC(C)=O)ccc1O`, the melting point lay in the range of 146 to 147 °C. Then `CC(=C(c1ccccc1)c1ccccc1)P(c1ccccc1)c1ccccc1`, with 128 to 130 °C; and `CC1(C)C(=O)ON(Cc2ccc(Cl)cc2Cl)C1=O`, with 68 to 69.5 °C. `COc1ccc(C(=O)c2c(F)cccc2F)c(Cl)c1Cl` showed a melting point of 94 to 96 °C. Molecule `Nc1cc(Cl)cc2cccnc12` had a melting point of 70 to 73 °C. In the case of `CCOC(=O)NC=C(C(=O)OCC)c1ccc(Cl)cc1`, the melting point is 72 °C. For `Cc1ccn(-c2ccc(C(=O)N3Cc4ccc(CN(C)C)n4Cc4ccccc43)c(Cl)c2)n1`, the melting point fell in the range of 100 to 102 °C. `COc1ccc(C2COc3c(ccc(O)c3C)C2)cc1` (stereo unspecified) came in with a melting point of 140 to 141 °C. Molecule `CC#COc1ccc2c(=O)cc(-c3ccccc3)oc2c1` came in with a melting point of 199 to 200 °C. `CN(C)N=Nc1cc(-c2ccccc2)sc1C(=O)O` displayed a melting point of 162 to 166 °C.

With `CCCCCCCCCCCCCCOc1ccc(CC(=O)CO)cc1`, the melting point lay in the range of 84 to 85 °C. For `O=C1NCCN1c1ccc(S(=O)(=O)Nc2ccc3c(c2)Cc2ccccc2-3)cc1`, the melting point lay within 164 to 166 °C. In turn, `CN1C(=O)CC[C@]2(C)c3ccc(-c4cccc(Cl)c4)cc3CC[C@@H]12` gave a melting point of 158 to 165 °C. With `Cc1ccc(C23CC4CC(C2)CC(c2ccc(C)cc2)(C4)C3)cc1` the figure was 145 to 146 °C; with `COc1cc2c(c(OC)c1OC)-c1ccc(NC(=O)C(C)NC(=O)OCc3ccccc3)cc1C(NC(C)=O)CC2` (stereo unspecified), 140 to 141 °C. `ClCCCON=C(Cl)c1c(Cl)cccc1Cl`: the melting point was in the range of 69 to 71 °C.

Take `COc1cc(N)cc([N+](=O)[O-])c1OC`: the melting point was 129 to 131 °C. As for `Cc1cc(-c2sc(N3CCN(Cc4ccc(C(=O)N5CCCCC5)cc4)C3=O)nc2C)[nH]n1`, the melting point is 182 to 183 °C. As to `CCOC(=O)c1c(N)sc2c1CN(C(=O)OCC)C2`, the melting point was in the range of 154 to 156 °C.

The molecule `Cc1nc(-c2ccc3c(c2)CCCC3)c(CC(Cl)C(=O)O)o1` (stereo unspecified) registered a melting point of 141 to 142 °C. Molecule `O=Cc1ccccc1-n1nnnc1CC(=O)C(F)(F)F` showed a melting point of 128 °C.

In turn, `O=C(O)CCc1cnoc1-c1cccc(Cl)c1` returned a melting point of 110 to 111 °C. For `CC(C)n1nc(-c2sc(NC=O)nc2-c2ccccc2)ccc1=O`, the melting point fell in the range of 232 to 234 °C.

On to `Cc1cccc(Nc2cc(Nc3cccc(OCC(=O)N(CCO)CCO)c3)ncn2)c1`, for which the melting point is 112 to 113 °C.

Take `O=C(NCCCc1ccc(CO)cc1)c1ccc(-c2ccccn2)cc1`: the melting point lay within 118 to 120 °C. For the molecule `CC(C)(CNc1ccnc2cc(Cl)ccc12)NCc1ccc(F)c(Cl)c1`, the melting point is 164 to 165 °C. With `Cc1cc(-c2c3c(cc4ccc(O)cc24)-c2ccc(O)cc2CO3)ccc1F` the figure was 185 to 188 °C; with `CN(C(=O)c1ccc2nonc2c1)C1CCSCC1`, 155 to 156 °C; with `CS(=O)(=O)Nc1c([N+](=O)[O-])cnn1-c1c(F)c(F)c(C(F)(F)F)c(F)c1F`, 163 to 168 °C. Turning to `Cc1ccc(C2(CC(=O)O)CNC(=O)C2)cc1` (stereo unspecified), the melting point lay in the range of 184 to 186 °C.

`CCOC(=O)CCc1ccc2c3ccccc3n(Cc3ccccc3)c2c1C`: the melting point was in the range of 114 to 115 °C. The molecule `Cc1cccc(-c2n[nH]cc2-c2ccc(F)c(-c3c[nH]c(C(O)CO)n3)c2)n1` (stereo unspecified) showed a melting point of 125 to 127 °C. Take `CCOC(=O)C1(C(=O)OCC)C(C(C)=O)C(=O)N1Cc1ccc(OC)cc1OC` (stereo unspecified): the melting point lay within 84 to 85 °C.

In turn, `NC(=O)CN1CCN(C(=O)c2cc(C(F)(F)F)cc(C(F)(F)F)c2)[C@H](Cc2c[nH]c3ccccc23)C1` gave a melting point of 170 to 173 °C. On to `CN(C)C(=S)Oc1ccccc1C#N`, for which the melting point was found to be 112 °C. Molecule `O=C(NC1CCCCC1)NC1N=C(C2CCCCC2)c2ccccc2N(CC(=O)N2CC3CCC(CC3)C2)C1=O` (racemic) gave a melting point of 195 to 197 °C. Then `CCc1cn2ccccc2c1S(=O)(=O)c1ccc(O)c(C)c1`, with 214 °C; and `CC(C)n1nc(-c2cc(C(=O)O)c(=O)[nH]c2-c2ccccc2)ccc1=O`, with 212 to 215 °C. In the case of `NS(=O)(=O)c1cc(C(=O)O)cc([N+](=O)[O-])c1Oc1ccc(OCc2ccccc2)cc1`, the melting point came to 247 °C. Take `CC(C)C(=O)NC1CCc2c(c3cc(C#N)ccc3n2Cc2ncccc2F)C1` (stereo unspecified): the melting point was 213 to 216 °C. `O=[N+]([O-])c1cn2c(n1)O[C@@H](CN1CCN(Cc3ccc(C(F)(F)F)cc3)CC1)C2` displayed a melting point of 149 to 150 °C. The molecule `Cc1nc(N(C)c2ccccc2)n2ncc(C(=O)c3ccccc3)c2n1` showed a melting point of 121 °C. As for `COc1cc2cc(C=NO)c(Cl)nc2cc1OC`, the melting point was 237 to 238 °C. `C#CCN1CC(=O)N(c2c(C)cccc2C)C1=S` yielded a melting point of 117 to 121 °C.

For the molecule `Cn1nc(-c2ccncc2)c2ccccc2c1=O`, the melting point was 173 to 174 °C. With `Nc1cc2c(=O)cc(C(=O)O)[nH]c2ccc1=O`, the melting point is > 250 °C. Then `Cn1ccnc1C1=Cc2cc(OC(C)(C)C(=O)O)ccc2OC1`, with 187 to 190 °C; and `NP(N)(=O)NC(=O)c1ccsc1`, with 269 to 278 °C.

`CCCCCCCCCCCCCCCCCCN(C(=O)CCCCCCCCCCC)C1O[C@H](CO)[C@@H](O)[C@H](O)[C@H]1NC(=O)CCCCCCCCCCC` (stereo partly specified) came in with a melting point of 86 °C. For the molecule `COC(=O)c1cc(OC)c(OC)c(OC)c1-c1c(C(=O)OC)cc2c(c1OC)OCO2`, the melting point was 109 to 110 °C.

In turn, `c1cnc2cccn2c1` returned a melting point of 230 to 231 °C. `CCCc1c(OCCCCCOc2ccc3c(c2CCC)OC(C(=O)O)CC3)ccc(CC)c1O` (stereo unspecified): the melting point was in the range of 101 to 102 °C. `CCOC(=O)C(=CNc1ccc2nccnc2c1)C(=O)OCC` had a melting point of 112 to 114 °C. `CC(=O)COc1ccc(/C=C/C(=O)O)c(Oc2ncc(C(F)(F)F)cc2Cl)c1` showed a melting point of 179 to 180 °C. Molecule `CC(=O)OC1CSC(Br)C(OC(C)=O)C1OC(C)=O` (stereo unspecified) displayed a melting point of 175 °C. `NCc1ccc(CNC(=O)[C@@H](CCCNC(N)=N[N+](=O)[O-])NC(=O)C(c2ccccc2)c2ccccc2)cc1`: the melting point is 198 to 199 °C. In turn, `CCOC(=O)c1cnc2c(SC(=O)N(C)C)cccn2c1=O` returned a melting point of 133 to 134 °C. As to `O=C(O)c1cn(-c2ccc(F)cc2F)c2cc(Cl)c(F)c(Cl)c2c1=O`, the melting point lay in the range of 244 to 246 °C.

As to `COC(=O)C(=Cc1c[nH]c2cc(Cl)ccc12)NC(C)=O`, the melting point lay in the range of 202 to 203 °C. Then `C=CC(=O)Oc1ccc(C(=O)c2ccccc2)cc1`, with 44 to 46 °C; and `Nc1nc(-c2cc(Cl)ccc2Cl)nc(N2CCS(=O)CC2)n1`, with 267 to 269 °C; and `COc1ccc(CN(OC)C(=O)C2=C(O)C(=O)N(C)C2)cc1`, with 135 to 137 °C.

As for `Nc1nc(N)c2nc(CNc3ccc(Cl)cc3)cnc2n1`, the melting point was > 360 °C. Turning to `N#Cc1cnn(-c2nc(F)c(C(F)(F)F)cc2Cl)c1N`, the melting point lay in the range of 156 to 159 °C. The molecule `COC(=O)CCCNC1(c2ccccc2Cl)C(=O)Nc2ccc(Cl)cc21` (stereo unspecified) registered a melting point of 142 °C. Then `CCC(=O)C1=C(O)OC(C)(C)OC1=O`, with 55 to 57 °C. In the case of `CCN1C(=O)C(C)(C)c2ccc(C(=O)Nc3ccc(C#N)cc3)cc21`, the melting point lay within 211 to 213 °C.

`C#CCn1nnc2cc3c(cc2c1=O)OC1CCCN1C3=O` (stereo unspecified) displayed a melting point of 186 to 188 °C. On to `CCOC(=O)c1cn(C2CC2)c2cc(F)c(F)c(N)c2c1=O`, for which the melting point fell in the range of 240 to 241 °C. Take `C=C(CC(=O)c1ccc(C)cc1)C(=O)O`: the melting point lay in the range of 137 to 138 °C. Then `O=CN1c2ccccc2N(Cc2ccccc2)CC1CN1CCCC1` (stereo unspecified), with 94 to 96 °C. On to `O=C(NC1CCC(Oc2ccc(F)cc2)CC1)NC12CC3CC(CC(C3)C1)C2` (stereo unspecified), for which the melting point was found to be 243 °C. Molecule `CCCCCCCCCCCC#Cc1cnccc1C=C(C(=O)O)C(=O)O` showed a melting point of 175 to 177 °C. The molecule `CNC(=O)Nc1ccccc1` gave a melting point of 149 to 150 °C. For `O=C1N(Cc2ccccn2)c2cccc(-c3cccnc3)c2C12COc1cc3c(cc12)CCO3` (stereo unspecified), the melting point is > 200 °C. In turn, `CC(=O)Nc1cscn1` yielded a melting point of 176 °C. Molecule `Cc1ccccc1-n1c(C=Cc2ccccc2F)nc2cnccc2c1=O` gave a melting point of 211 to 212 °C.
